Literature values as cited in patent US20060210492A1 (priority 2005, published 2006).

## CO[C@H]1/C=C/O[C@@]2(C)Oc3c(C)c(O)c4c(O)c(c5c(nc6cc(C)ccn65)c4c3C2=O)NC(=O)/C(C)=C\C=C\[C@H](C)[C@H](O)[C@@H](C)[C@@H](O)[C@@H](C)[C@H](OC(C)=O)[C@@H]1C [rifaximin, (2S,16Z,18E,20S,21S,22R,23R,24R,25S,26S,27S,28E)-5,6,21,23,25-pentahydroxy-27-methoxy-2,4,11,16,20,22,24,26-octamethyl-2,7-(epoxypentadeca-[1,11,13]trienimino)benzofuro[4,5-e]pyrido[1,2-a]-benzimidazole-1,15(2H)-dione,25-acetate]
  solubility in water: practically insoluble
